From US20090123543A1, “PHARMACEUTICAL COMPOSITIONS” (priority 2006, published 2009) come the findings set out here.

Each structure is given as a SMILES string.

The data set is described as follows: Comparative physical (blend) properties of valsartan and valsartan granules. Type of data set: physicochemical. The protocol: Valsartan was added to molten Lutrol F127 (at about 60-65° C.) under continuous mixing till a uniform semi-solid mixture was obtained. Weighed quantity of microcrystalline cellulose was added to the molten semi-solid mixture under continuous mixing. The blend was then allowed to cool to room temperature and the cooled mass was crushed and passed through 20# sieve.

Where the note is “blend property”, `CCCCC(=O)N(Cc1ccc(-c2ccccc2-c2nnn[nH]2)cc1)[C@H](C(=O)O)C(C)C` [Valsartan] came in with a Bulk density of 0.12 g/mL. Where the note is “flow through funnel/orifice”, the Flow entry was “as valsartan did not flow”.
